Laboratory results: patent publication US9023789B2, “Amylin analogs and pharmaceutical compositions thereof” (Novo Nordisk A/S, priority 2012, dated 2015)
Numbered stars: 1 amine (or outer) side, 2 acyl side, 3 side chain; on linkers, the order of the positions; unused ones are H or OH. Bridge positions count the residues as written; N and C are the ends. Side chains are listed from the residue outwards. Peptide text beside a SMILES is read from it. * marks the point of attachment. C20 diacid = O=C(O)CCCCCCCCCCCCCCCCCCC(=O)*; γGlu = O=C(O)[C@H](CCC(=O)[*:2])N[*:1]; AEEA = NCCOCCOCC(=O)O

Columns and labels:
[1] = biological target: T1, human amylin 3(a) receptor (human calcitonin receptor + RAMP-3) in BHK570 cells (Homo sapiens, UniProt O60896+P30988); test: ASSAY (II)a functional assay, human amylin receptor (CRE luciferase); assay type: cell-based
T1 construct: expressed in transfected cells
Procedure, shortened: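 BHK cells stably carrying a CRE-luciferase reporter plus calcitonin receptor, or calcitonin receptor with RAMP-3 for the amylin 3(a) receptor, were seeded and kept overnight at 37° C. Compounds were added in assay medium with 10% FBS and 10 mM Hepes, pH 7.4, for 3 hours at 37° C, then luminescence was counted.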

[2] = biological target: T2, human amylin receptor (membranes from Amylin 3(a)/CRE-luc cells) (Homo sapiens, UniProt O60896+P30988); test: ASSAY (V) binding to the human amylin receptor (SPA, 125I-rat amylin);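 note: competition binding of cell membranes (35 ng/µL) mixed with SPA beads in 384-well plates at 40 µL total volume, read by scintillation counting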
T2 construct: expressed in transfected cells
T2 sequence (P30988 25-474): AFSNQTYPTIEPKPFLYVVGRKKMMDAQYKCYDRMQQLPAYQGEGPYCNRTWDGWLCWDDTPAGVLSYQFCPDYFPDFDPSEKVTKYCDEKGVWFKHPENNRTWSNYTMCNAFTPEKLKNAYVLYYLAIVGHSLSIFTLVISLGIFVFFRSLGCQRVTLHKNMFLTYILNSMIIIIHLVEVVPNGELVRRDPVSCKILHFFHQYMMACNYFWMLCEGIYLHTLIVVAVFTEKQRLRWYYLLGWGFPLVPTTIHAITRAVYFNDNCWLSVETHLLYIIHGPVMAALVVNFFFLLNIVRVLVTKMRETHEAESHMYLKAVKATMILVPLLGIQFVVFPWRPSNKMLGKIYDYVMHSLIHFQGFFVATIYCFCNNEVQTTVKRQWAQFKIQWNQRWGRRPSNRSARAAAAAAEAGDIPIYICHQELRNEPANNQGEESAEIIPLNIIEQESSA
T2 sequence (O60896 24-148 partner): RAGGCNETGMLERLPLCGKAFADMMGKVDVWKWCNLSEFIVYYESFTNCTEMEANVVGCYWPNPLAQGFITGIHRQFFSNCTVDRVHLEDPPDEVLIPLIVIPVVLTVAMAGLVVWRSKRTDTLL

[3] = biological target: T3, rat calcitonin receptor (Rattus norvegicus, UniProt P32214); test: ASSAY (VIII) binding to the rat calcitonin receptor; conditions: Table 7, read-out: rCTR bind IC50
T3 construct: expressed in transfected cells; host or cells: BHK tk'ts 13 (transient, FuGENE 6), membranes
T3 sequence (P32214 25-479 isoform P32214-2 limits assumed): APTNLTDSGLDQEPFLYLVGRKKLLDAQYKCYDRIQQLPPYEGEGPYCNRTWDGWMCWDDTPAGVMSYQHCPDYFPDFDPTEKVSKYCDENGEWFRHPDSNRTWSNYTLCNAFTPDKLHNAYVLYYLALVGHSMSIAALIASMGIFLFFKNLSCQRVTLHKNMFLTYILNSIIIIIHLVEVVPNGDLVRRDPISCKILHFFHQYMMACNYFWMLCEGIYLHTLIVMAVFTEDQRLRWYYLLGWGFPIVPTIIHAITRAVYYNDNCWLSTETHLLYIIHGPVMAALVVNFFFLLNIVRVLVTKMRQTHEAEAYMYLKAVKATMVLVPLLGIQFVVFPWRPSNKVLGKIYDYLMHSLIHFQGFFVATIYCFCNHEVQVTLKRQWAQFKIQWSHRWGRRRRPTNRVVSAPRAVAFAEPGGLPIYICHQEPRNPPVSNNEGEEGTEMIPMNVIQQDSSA
Procedure, shortened: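 Transfect BHK tk′ts 13 cells transiently with rat calcitonin receptor, culture in DMEM containing 10% FBS, collect cells about 48 hours later, then prepare membranes.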

[4] = hCTR funct. EC50 divided by hAmylin-R funct. EC50
[5] = hCTR funct. EC50 over hAmylin-R funct. EC50
[6] = human functional selectivity: hCTR funct. EC50 / hAmylin-R funct. EC50
[7] = Table 5, selectivity, hCTR bind IC50 / hAmylin-R bind IC50
[8] = Table 5a, selectivity, hCTR bind IC50 / hAmylin-R bind IC50
[9] = Table 5b, selectivity, hCTR bind IC50 / hAmylin-R bind IC50
[10] = Table 5c, selectivity, hCTR bind IC50 / hAmylin-R bind IC50
[11] = Table 7, human binding selectivity, included for comparison
[12] = Table 7a (preferred compounds), human binding selectivity, included for comparison
[13] = ratio of human calcitonin receptor binding IC50 to human amylin receptor binding IC50

| Structure (SMILES) | Ratio hCT/hAmylin funct. [1, 4] | Ratio hCT/hAmylin funct. [1, 5] | EC50 ([1]; human amylin receptor functional potency, assay (II), read-out: hAmylin-R funct. EC50) [nM] | Ratio hCT/hAmylin funct. [1, 6] | IC50 ([2]; Table 4, read-out: hAmylin-R bind IC50) [nM] | Ratio hCT/hAmylin binding [2, 7] | Ratio hCT/hAmylin binding [2, 8] | Ratio hCT/hAmylin binding [2, 9] | Ratio hCT/hAmylin binding [2, 10] | Ratio hCT/hAmylin binding [2, 11] | Ratio hCT/hAmylin binding [2, 12] | Ratio hCT/hAmylin binding [2, 13] | IC50 [3] [nM] |
| --- | --- | --- | --- | --- | --- | --- | --- | --- | --- | --- | --- | --- | --- |
| CC[C@H](C)[C@H](NC(=O)[C@H](C)NC(=O)CNC(=O)[C@H](Cc1ccccc1)NC(=O)[C@H](CC(N)=O)NC(=O)[C@@H]1CCCN1C(=O)[C@H](CO)NC(=O)[C@H](CO)NC(=O)[C@H](Cc1c[nH]cn1)NC(=O)[C@H](CCCNC(=N)N)NC(=O)[C@H](CC(C)C)NC(=O)[C@H](Cc1ccccc1)NC(=O)[C@H](CC(=O)O)NC(=O)[C@H](C)NC(=O)[C@H](CC(C)C)NC(=O)[C@H](CCCNC(=N)N)NC(=O)[C@H](CCC(N)=O)NC(=O)[C@@H](NC(=O)[C@H](C)NC(=O)[C@@H]1CSSC[C@H](NC(=O)[C@@H](N)CCCCNC(=O)CC[C@H](NC(=O)CCCCCCCCCCCCCCCCCCC(=O)O)C(=O)O)C(=O)N[C@@H](CC(N)=O)C(=O)N[C@@H]([C@@H](C)O)C(=O)N[C@@H](C)C(=O)N[C@@H]([C@@H](C)O)C(=O)N1)[C@@H](C)O)C(=O)N1CCC[C@H]1C(=O)N[C@@H](CO)C(=O)N[C@@H](CO)C(=O)N[C@H](C(=O)N[C@@H](CC(N)=O)C(=O)N[C@H](C(=O)NCC(=O)N1CCC[C@H]1C(=O)N[C@@H](CCCNC(=N)N)C(=O)N[C@H](C(=O)N[C@@H](Cc1ccc(O)cc1)C(N)=O)[C@@H](C)O)C(C)C)[C@@H](C)O [Example 129] (H-K([γGlu-C20 diacid])CNTATCATQRLADFLRHSSPNFGAIPSSTNVGPRTY-NH2; disulfide 2-7 (inferred); N-terminus assumed) | 24.9 | 24.9 | 0.146 | 24.9 | 0.281 | 151.1 | 151.1 | 151.1 | 151.1 | 151.1 | 151.1 | 151.1 | 58.5 |
| CC[C@H](C)[C@H](NC(=O)[C@H](C)NC(=O)CNC(=O)[C@H](Cc1ccccc1)NC(=O)[C@H](CC(N)=O)NC(=O)[C@@H]1CCCN1C(=O)[C@H](CO)NC(=O)[C@H](CO)NC(=O)[C@H](Cc1c[nH]cn1)NC(=O)[C@H](CCCNC(=N)N)NC(=O)[C@H](CC(C)C)NC(=O)[C@H](Cc1ccccc1)NC(=O)[C@H](CCC(=O)O)NC(=O)[C@H](C)NC(=O)[C@H](CC(C)C)NC(=O)[C@H](CCCNC(=N)N)NC(=O)[C@H](CCC(N)=O)NC(=O)[C@@H](NC(=O)[C@H](C)NC(=O)[C@@H]1CSSC[C@H](NC(=O)[C@@H](N)CCCCNC(=O)CC[C@H](NC(=O)CCCCCCCCCCCCCCCCCCC(=O)O)C(=O)O)C(=O)N[C@@H](CC(N)=O)C(=O)N[C@@H]([C@@H](C)O)C(=O)N[C@@H](C)C(=O)N[C@@H]([C@@H](C)O)C(=O)N1)[C@@H](C)O)C(=O)N1CCC[C@H]1C(=O)N[C@@H](CO)C(=O)N[C@@H](CO)C(=O)N[C@H](C(=O)N[C@@H](CC(N)=O)C(=O)N[C@H](C(=O)NCC(=O)N[C@@H](CO)C(=O)N[C@@H](Cc1c[nH]cn1)C(=O)N[C@H](C(=O)N[C@@H](Cc1ccc(O)cc1)C(N)=O)[C@@H](C)O)C(C)C)[C@@H](C)O [Example 128] (H-K([γGlu-C20 diacid])CNTATCATQRLAEFLRHSSPNFGAIPSSTNVGSHTY-NH2; disulfide 2-7 (inferred); N-terminus assumed) | 13.1 | 13.1 |  | 13.1 |  | 26.4 | 26.4 | 26.4 | 26.4 | 26.4 | 26.4 | 26.4 | 26.3 |
| CC[C@H](C)[C@H](NC(=O)[C@H](C)NC(=O)CNC(=O)[C@H](Cc1ccccc1)NC(=O)[C@H](CC(N)=O)NC(=O)[C@@H]1CCCN1C(=O)[C@H](CO)NC(=O)[C@H](CO)NC(=O)[C@H](Cc1c[nH]cn1)NC(=O)[C@H](CCCNC(=N)N)NC(=O)[C@H](CC(C)C)NC(=O)[C@H](Cc1ccccc1)NC(=O)[C@H](CCC(=O)O)NC(=O)[C@H](C)NC(=O)[C@H](CC(C)C)NC(=O)[C@H](CCCNC(=N)N)NC(=O)[C@H](CCC(N)=O)NC(=O)[C@@H](NC(=O)[C@H](C)NC(=O)[C@@H]1CSSC[C@H](NC(=O)[C@@H](N)CCCCNC(=O)CC[C@H](NC(=O)CC[C@H](NC(=O)CCCCCCCCCCCCCCCCCCC(=O)O)C(=O)O)C(=O)O)C(=O)N[C@@H](CC(N)=O)C(=O)N[C@@H]([C@@H](C)O)C(=O)N[C@@H](C)C(=O)N[C@@H]([C@@H](C)O)C(=O)N1)[C@@H](C)O)C(=O)N1CCC[C@H]1C(=O)N[C@@H](CO)C(=O)N[C@@H](CO)C(=O)N[C@H](C(=O)N[C@@H](CC(N)=O)C(=O)N[C@H](C(=O)NCC(=O)N1CCC[C@H]1C(=O)N[C@@H](CC(N)=O)C(=O)N[C@H](C(=O)N[C@@H](Cc1ccccc1)C(N)=O)[C@@H](C)O)C(C)C)[C@@H](C)O [Example 127] (H-K([γGlu-γGlu-C20 diacid])CNTATCATQRLAEFLRHSSPNFGAIPSSTNVGPNTF-NH2; disulfide 2-7 (inferred)) | 9.9 | 9.9 |  | 9.9 |  | 18.0 | 18.0 | 18.0 |  | 18.0 | 18.0 | 18.0 | 23.4 |
| CC[C@H](C)[C@H](NC(=O)[C@H](C)NC(=O)CNC(=O)[C@H](Cc1ccccc1)NC(=O)[C@H](CC(N)=O)NC(=O)[C@@H]1CCCN1C(=O)[C@H](CO)NC(=O)[C@H](CO)NC(=O)[C@H](Cc1c[nH]cn1)NC(=O)[C@H](CCCNC(=N)N)NC(=O)[C@H](CC(C)C)NC(=O)[C@H](Cc1ccccc1)NC(=O)[C@H](Cc1c[nH]cn1)NC(=O)[C@H](C)NC(=O)[C@H](CC(C)C)NC(=O)[C@H](CCCNC(=N)N)NC(=O)[C@H](CCC(N)=O)NC(=O)[C@@H](NC(=O)[C@H](C)NC(=O)[C@@H]1CSSC[C@H](NC(=O)[C@@H](N)CCCCNC(=O)COCCOCCNC(=O)CC[C@H](NC(=O)CCCCCCCCCCCCCCCCCCC(=O)O)C(=O)O)C(=O)N[C@@H](CC(N)=O)C(=O)N[C@@H]([C@@H](C)O)C(=O)N[C@@H](C)C(=O)N[C@@H]([C@@H](C)O)C(=O)N1)[C@@H](C)O)C(=O)N1CCC[C@H]1C(=O)N[C@@H](CO)C(=O)N[C@@H](CO)C(=O)N[C@H](C(=O)N[C@@H](CC(N)=O)C(=O)N[C@H](C(=O)NCC(=O)N1CCC[C@H]1C(=O)N[C@@H](CC(N)=O)C(=O)N[C@H](C(=O)N[C@@H](Cc1ccc(O)cc1)C(N)=O)[C@@H](C)O)C(C)C)[C@@H](C)O [Example 68] (H-K([AEEA-γGlu-C20 diacid])CNTATCATQRLAHFLRHSSPNFGAIPSSTNVGPNTY-NH2; disulfide 2-7) | 17.4 | 17.4 |  | 17.4 |  | 64.4 | 64.4 | 64.4 | 64.4 | 64.4 | 64.4 | 64.4 | 28.5 |
